Measurements reported in patent US10273272B2, “Antimicrobial peptides” (Amprologix Limited, priority 2014, dated 2019).
No end group written: not given here.

Experiments:
S. aureus 1195 = format: cell-based
Procedure: (§1) Experiments were conducted in which the full-length epidermicin peptide (51 amino acids, SEQ ID NO:10) was truncated to yield the derivatives shown in FIG. 1 (SEQ ID NOs:11 to 19). NI011-37 (SEQ ID NO:11) Is the region most similar to other peptides in the public domain, NI0138-51 (SEQ ID NO:12) is the region that is most unique with respect to other peptides in the public domain. All other truncations have been carried out by removing residues from the amino-terminal end of the peptide to each lysine residue (K). Lysine is important in antimicrobial peptides as it contributes to the net positive charge, which is thought to have a key role in the mode of action of ‘cationic’ peptides, like NI01 (SEQ ID NO:10).

S. epidermidis = format: cell-based
Procedure: as §1

S. Hominis = format: cell-based
Procedure: as §1

S. saprophyticus = format: cell-based
Procedure: as §1

MRSA = format: cell-based, Staphylococcus aureus
Procedure: as §1

Sequence: KQIKKLWA [SEQ ID NO:19]
- MIC (S. aureus 1195): 16 µg/mL
- MIC (S. epidermidis): >64 µg/mL
- MIC (S. Hominis): >64 µg/mL
- MIC (S. saprophyticus): 16 µg/mL
- MIC (MRSA): >64 µg/mL
